Measurements as given in the NIST ThermoML archive (doi:10.1016/j.jct.2008.06.017).

What was measured:
[1] = xn = mol fraction of the nth substance listed; settings: Liquid, Vibrating tube method
[2] = Liquid, Vibrating tube method

COC(=O)OC [dimethyl carbonate] + C=CCOC(=O)C(=C)C
[1], x1 = 1
Settings | mass density [kg/m3]
293.15 K | 1069.79
303.15 K | 1056.75
313.15 K | 1043.37

COC(=O)OC [dimethyl carbonate]
[2]
Settings | mass density [kg/m3]
293.15 K | 1069.79
303.15 K | 1056.75
313.15 K | 1043.37

C=C(C)C(=O)OCCCC [butyl 2-methyl-2-propenoate] + COC(=O)OC
[1]
Settings | mass density [kg/m3]
293.15 K, x2 = 0 | 895.231
293.15 K, x2 = 0.0253 | 897.401
293.15 K, x2 = 0.0496 | 899.525
293.15 K, x2 = 0.1 | 904.247
293.15 K, x2 = 0.1512 | 909.195
293.15 K, x2 = 0.2002 | 914.234
293.15 K, x2 = 0.2501 | 919.652
293.15 K, x2 = 0.3 | 925.514
293.15 K, x2 = 0.3496 | 931.664
293.15 K, x2 = 0.4002 | 938.381
293.15 K, x2 = 0.45 | 945.36
293.15 K, x2 = 0.4998 | 952.885
293.15 K, x2 = 0.5499 | 960.906
293.15 K, x2 = 0.6 | 969.499
293.15 K, x2 = 0.6499 | 978.774
293.15 K, x2 = 0.7003 | 988.865
293.15 K, x2 = 0.7501 | 999.691
293.15 K, x2 = 0.7998 | 1011.24
293.15 K, x2 = 0.8502 | 1024.04
293.15 K, x2 = 0.8997 | 1037.82
293.15 K, x2 = 0.9499 | 1053.1
293.15 K, x2 = 0.9747 | 1061.18
303.15 K, x2 = 0 | 885.991
303.15 K, x2 = 0.0255 | 888.128
303.15 K, x2 = 0.0511 | 890.378
303.15 K, x2 = 0.0984 | 894.561
303.15 K, x2 = 0.1496 | 899.445
303.15 K, x2 = 0.1998 | 904.542
303.15 K, x2 = 0.251 | 909.93
303.15 K, x2 = 0.3 | 915.538
303.15 K, x2 = 0.3498 | 921.462
303.15 K, x2 = 0.4002 | 927.876
303.15 K, x2 = 0.4505 | 934.768
303.15 K, x2 = 0.5001 | 942.022
303.15 K, x2 = 0.5497 | 949.757
303.15 K, x2 = 0.6003 | 958.326
303.15 K, x2 = 0.6507 | 967.581
303.15 K, x2 = 0.7003 | 977.274
303.15 K, x2 = 0.7503 | 987.854
303.15 K, x2 = 0.8003 | 999.303
303.15 K, x2 = 0.8497 | 1011.72
303.15 K, x2 = 0.8997 | 1025.31
303.15 K, x2 = 0.95 | 1040.3
303.15 K, x2 = 0.9746 | 1048.26
313.15 K, x2 = 0 | 876.19
313.15 K, x2 = 0.0248 | 878.23
313.15 K, x2 = 0.0506 | 880.426
313.15 K, x2 = 0.1009 | 884.856
313.15 K, x2 = 0.1505 | 889.457
313.15 K, x2 = 0.2003 | 894.361
313.15 K, x2 = 0.2512 | 899.681
313.15 K, x2 = 0.3005 | 905.153
313.15 K, x2 = 0.3502 | 910.961
313.15 K, x2 = 0.4009 | 917.353
313.15 K, x2 = 0.4509 | 924.075
313.15 K, x2 = 0.4999 | 931.103
313.15 K, x2 = 0.5506 | 938.855
313.15 K, x2 = 0.6 | 947.003
313.15 K, x2 = 0.6502 | 955.954
313.15 K, x2 = 0.7002 | 965.503
313.15 K, x2 = 0.7503 | 975.976
313.15 K, x2 = 0.7999 | 987.089
313.15 K, x2 = 0.8501 | 999.417
313.15 K, x2 = 0.8998 | 1012.69
313.15 K, x2 = 0.9498 | 1027.3
313.15 K, x2 = 0.9751 | 1035.15

COC(=O)OC [dimethyl carbonate] + C=Cc1ccccc1
[1], x1 = 1
Settings | mass density [kg/m3]
293.15 K | 1069.79
303.15 K | 1056.75
313.15 K | 1043.37

C=CCOC(=O)C(=C)C [2-propenyl 2-methylpropenoate]
[2]
Settings | mass density [kg/m3]
293.15 K | 932.965
303.15 K | 922.525
313.15 K | 912.072

C=Cc1ccccc1 [styrene]
[2]
Settings | mass density [kg/m3]
293.15 K | 906.26
303.15 K | 897.392
313.15 K | 888.472

C=COC(C)=O [vinyl acetate] + COC(=O)OC
[1]
Settings | mass density [kg/m3]
293.15 K, x2 = 0 | 931.95
293.15 K, x2 = 0.025 | 935.258
293.15 K, x2 = 0.0504 | 938.581
293.15 K, x2 = 0.1002 | 945.231
293.15 K, x2 = 0.1537 | 952.421
293.15 K, x2 = 0.1999 | 958.65
293.15 K, x2 = 0.25 | 965.315
293.15 K, x2 = 0.3001 | 972.123
293.15 K, x2 = 0.3498 | 978.865
293.15 K, x2 = 0.4002 | 985.701
293.15 K, x2 = 0.4503 | 992.611
293.15 K, x2 = 0.5 | 999.443
293.15 K, x2 = 0.5502 | 1006.39
293.15 K, x2 = 0.6001 | 1013.38
293.15 K, x2 = 0.6495 | 1020.26
293.15 K, x2 = 0.6934 | 1026.46
293.15 K, x2 = 0.7501 | 1034.48
293.15 K, x2 = 0.7971 | 1041.1
293.15 K, x2 = 0.8499 | 1048.6
293.15 K, x2 = 0.9002 | 1055.59
293.15 K, x2 = 0.9493 | 1062.61
293.15 K, x2 = 0.975 | 1066.22
303.15 K, x2 = 0 | 919.089
303.15 K, x2 = 0.025 | 922.4
303.15 K, x2 = 0.0501 | 925.708
303.15 K, x2 = 0.0999 | 932.33
303.15 K, x2 = 0.15 | 939.009
303.15 K, x2 = 0.1998 | 945.689
303.15 K, x2 = 0.2499 | 952.431
303.15 K, x2 = 0.3004 | 959.251
303.15 K, x2 = 0.35 | 965.996
303.15 K, x2 = 0.4003 | 972.857
303.15 K, x2 = 0.4488 | 979.518
303.15 K, x2 = 0.4999 | 986.544
303.15 K, x2 = 0.5496 | 993.403
303.15 K, x2 = 0.6 | 1000.41
303.15 K, x2 = 0.6489 | 1007.22
303.15 K, x2 = 0.6986 | 1014.13
303.15 K, x2 = 0.7494 | 1021.26
303.15 K, x2 = 0.8 | 1028.36
303.15 K, x2 = 0.8496 | 1035.38
303.15 K, x2 = 0.8999 | 1042.51
303.15 K, x2 = 0.9496 | 1049.56
303.15 K, x2 = 0.9753 | 1053.22
313.15 K, x2 = 0 | 906.116
313.15 K, x2 = 0.0248 | 909.387
313.15 K, x2 = 0.0501 | 912.718
313.15 K, x2 = 0.1003 | 919.392
313.15 K, x2 = 0.1499 | 925.976
313.15 K, x2 = 0.2001 | 932.73
313.15 K, x2 = 0.25 | 939.446
313.15 K, x2 = 0.2999 | 946.16
313.15 K, x2 = 0.3502 | 953.002
313.15 K, x2 = 0.3999 | 959.753
313.15 K, x2 = 0.45 | 966.575
313.15 K, x2 = 0.4996 | 973.402
313.15 K, x2 = 0.5501 | 980.351
313.15 K, x2 = 0.5998 | 987.189
313.15 K, x2 = 0.6502 | 994.195
313.15 K, x2 = 0.7 | 1001.12
313.15 K, x2 = 0.7501 | 1008.14
313.15 K, x2 = 0.7999 | 1015.14
313.15 K, x2 = 0.8499 | 1022.15
313.15 K, x2 = 0.8995 | 1029.12
313.15 K, x2 = 0.9501 | 1036.31
313.15 K, x2 = 0.9746 | 1039.75
